Source: patent publication US9101620B2, “Polymorph of 3-(substituteddihydroisoindolinone-2-yl)-2,6-dioxopiperidine, and pharmaceutical compositions thereof” (Nanjing Cavendish Bio-Engineering Technology Co., Ltd., priority 2009, dated 2015)

What was measured:
Format in all cases: physicochemical
[1] = Acid destruction (0.1 mol/L HCl), related substances by HPLC; conditions: for Major impurity, peak tR4.717-4.737 / Major impurity, peak tR7.367-7.381 / Major impurity, peak tR11.067-11.100 / Total impurities generated by 0.1 mol/L acid destruction for 1 hour: 0.1 mol/L HCl, room temperature, 1 hour; for Chemical stability (in words): acid condition / 0.1 mol/L diluted HCl solution
Description: Acid destruction: 50 mg of sample weighted accurately was added into measuring flask of 100 mL, and 10 mL 0.1 mol/L HCl solution was added. After standing at room temperature for 1 hour, an equal amount of 0.1 mol/L NaOH solution was added for neutralization. Then the mixture was diluted with mobile phase to scale and shook to be homogeneous, and determined by HPLC.
(§1) HPLC conditions and system applicability: octadecylsilane bonded silica as the filler; 0.01 mol/L of potassium dihydrogen phosphate (adjusted to pH 3.5 by phosphoric acid)-methanol-acetonitrile (80:15:5) as the mobile phase; detection wavelength was 240 nm; the number of theoretical plates should be not less than 2000, calculated according to the peak of lenalidomide. The resolution of the peak of 3-(4-amino-1-oxo-1,3-dihydro-2H-isoindole-2-yl)-piperidine-2,6-dione from the peaks of adjacent impurities should meet requirements.
(§2) Determination method: sample was dissolved in mobile phase to be the solution containing 0.5 mg per 1 mL. 20 μL of such solution was injected into liquid chromatograph and chromatogram was recorded until fourfold the retention time of major component peak. If there were impurities peaks in the chromatogram of sample solution, total impurities and sole impurity were calculated by normalization method on the basis of peak area.

[2] = Destruction test: impurities in raw materials before destruction (HPLC); conditions: for Total impurities in raw materials before destruction: HPLC peak area normalization
Excerpt: The methods of destruction experiment of the Polymorph I of this invention (hereinafter referred to as “Polymorph I”) contrasting with the Polymorph A and B of 3-(4-amino-1-oxo-1,3-dihydro-2H-isoindole-2-yl)-piperidine-2,6-dione prepared by the method in CN 1871003A (hereinafter referred to as “Polymorph A” and “polymorph B”) and results of stability are followed:
as §1, §2

[3] = Oxidation destruction (30% H2O2), related substances by HPLC; conditions: for Major impurity, peak tR5.649-5.660 / Major impurity, peak tR10.372-10.401 / Major impurity, peak tR32.279-32.318 / Major impurity, peak tR35.063-35.098 / Total impurities generated by oxidation destruction: 30% H2O2, room temperature, 2 hour; for Chemical stability (in words): oxidating condition / oxidation destroy experiment
Description: Oxidation destruction: 50 mg of sample weighted accurately was added into measuring flask of 100 mL, and 10 mL 30% H2O2 was added. After standing at room temperature for 2 hour, the mixture was diluted with mobile phase to scale and shook to be homogeneous, and determined by HPLC.
as §1, §2

Structure (SMILES)	Major impurity, peak tR4.717-4.737 [1]	Major impurity, peak tR7.367-7.381 [1]	Major impurity, peak tR11.067-11.100 [1]	Total impurities generated by 0.1 mol/L acid destruction for 1 hour [1]	Chemical stability (in words) [1]	Major impurity, peak tR5.872-5.948 [2]	Major impurity, peak tR6.847-6.855 [2]	Major impurity, peak tR10.961-11.165 [2]	Total impurities in raw materials before destruction [2]	Major impurity, peak tR5.649-5.660 [3]	Major impurity, peak tR10.372-10.401 [3]	Major impurity, peak tR32.279-32.318 [3]	Major impurity, peak tR35.063-35.098 [3]	Total impurities generated by oxidation destruction [3]	Chemical stability (in words) [3]
Nc1cccc2c1CN(C1CCC(=O)NC1=O)C2=O (single isomer, unassigned) [Polymorph A, 3-(4-amino-1-oxo-1,3-dihydro-2H-isoindole-2-yl)-piperidine-2,6-dione]	0.33%	0.72%	0.04%	impurities: 1.13%	poor chemical stability	0.01%	0.01%	0.04%	impurities: 0.06%	0.39%	0.08%	0.08%	0.14%	impurities: 0.82%	poor chemical stability
Nc1cccc2c1CN(C1CCC(=O)NC1=O)C2=O (single isomer, unassigned) [Polymorph B, 3-(4-amino-1-oxo-1,3-dihydro-2H-isoindole-2-yl)-piperidine-2,6-dione]	0.33%	0.72%	0.04%	impurities: 1.22%	poor chemical stability	0.01%	0.01%	0.05%	impurities: 0.07%	0.36%	0.11%	0.10%	0.13%	impurities: 0.89%	poor chemical stability
